According to US6737383B1, “Herbicidal oxadiazolidines” (priority 1999, dated 2004):

Tests used:
[1] = tested on: cocklebur; experiment: Test B pre/postemergence cocklebur; assay type: in vivo, Xanthium strumarium
Outline: (§1)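 Test chemicals in a non-phytotoxic solvent mixture with surfactant were sprayed preemergence onto planted seeds and postemergence onto plants 2 to 18 cm tall (1- to 4-leaf stage). After twelve to sixteen days in a greenhouse, injury was visually rated against untreated controls from 0 (no effect) to 10 (complete control).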

[2] = tested on: blackgrass; experiment: Test E blackgrass; assay type: in vivo, Alopecurus myosuroides; details: Preemergence
[3] = tested on: Italian ryegrass; experiment: Test E Italian ryegrass; assay type: in vivo, Lolium multiflorum; details: Preemergence
[4] = tested on: soybean; experiment: Test B pre/postemergence soybean; assay type: in vivo, Glycine max
Outline: as §1

[5] = tested on: pigweed; experiment: Test B pre/postemergence pigweed; assay type: in vivo, Amaranthus retroflexus
Outline: as §1

[6] = tested on: winter barley; experiment: Test E winter barley; assay type: in vivo, Hordeum vulgare; details: Preemergence
[7] = tested on: winter wheat; experiment: Test E winter wheat; assay type: in vivo, Triticum aestivum; details: Preemergence
[8] = tested on: wild oat; experiment: Test E wild oat; assay type: in vivo, Avena fatua; details: Preemergence
[9] = tested on: morningglory; experiment: Test B pre/postemergence morningglory; assay type: in vivo, Ipomoea hederacea
Outline: as §1

[10] = tested on: winter wheat; experiment: Test E winter wheat; assay type: in vivo, Triticum aestivum; details: Postemergence; for Plant response rating, Wheat (winter): 0 to 100 scale
Outline: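 Greenhouse test: for postemergence, foliar application at 1- to 4-leaf stage; compound in non-phytotoxic solvent with surfactant. Rating is visual, relative to untreated controls, about 21 to 28 days after treatment.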

[11] = tested on: green foxtail; experiment: Test E green foxtail; assay type: in vivo, Setaria viridis; details: Preemergence
[12] = Preemergence, Rate 62 g/ha, scale of 0 to 10 where 0 is no effect and 10 is complete control
[13] = Preemergence, Rate 250 g/ha, scale of 0 to 10 where 0 is no effect and 10 is complete control
[14] = Preemergence, Rate 500 g/ha, scale of 0 to 10 where 0 is no effect and 10 is complete control
[15] = Rate 62 g/ha, Postemergence, scale of 0 to 10 where 0 is no effect and 10 is complete control
[16] = Rate 125 g/ha, Preemergence, scale of 0 to 10 where 0 is no effect and 10 is complete control
[17] = Rate 500 g/ha, Postemergence, scale 0 to 10, 0 no effect, 10 complete control
[18] = Rate 31 g/ha, 0 to 100 scale, 0 no effect, 100 complete control
[19] = Rate 62 g/ha, 0 to 100 scale, 0 no effect, 100 complete control
[20] = Rate 125 g/ha, 0 to 100 scale (0 no effect, 100 complete control)
[21] = Rate 125 g/ha, Postemergence, scale of 0 to 10 where 0 is no effect and 10 is complete control
[22] = Rate 250 g/ha, Postemergence, scale of 0 to 10 where 0 is no effect and 10 is complete control
[23] = Rate 500 g/ha, 0 to 100 scale where 0 is no effect and 100 is complete control

Structure (SMILES): [2H]C([2H])([2H])n1c(=O)on(C(=O)N(c2ccc(F)cc2)C(C)C)c1=O [Compound 245]
- Cocklebur plant response rating [1, 12]: 0
- Cocklebur plant response rating [1, 13]: 2
- Plant response rating, Cocklebur [1, 14]: 6
- Cocklebur plant response rating [1, 15]: 0
- Cocklebur plant response rating ([1]; Rate 125 g/ha, Postemergence, scale 0 to 10): 0
- Cocklebur plant response rating [1, 16]: 2
- Plant response rating (0 to 10; 0 is no effect, 10 is complete control), Cocklebur ([1]; Rate 250 g/ha, Postemergence): 0
- Cocklebur plant response rating [1, 17]: 1
- Plant response rating, Blackgrass [2, 18]: 60
- Plant response rating, Blackgrass [2, 19]: 60
- Plant response rating, Blackgrass [2, 20]: 50
- Plant response rating, I. Ryegrass [3, 18]: 20
- Plant response rating, I. Ryegrass [3, 19]: 40
- Plant response rating, I. Ryegrass [3, 20]: 60
- Soybean plant response rating [4, 12]: 0
- Soybean plant response rating [4, 13]: 2
- Plant response rating, Soybean [4, 14]: 8
- Soybean plant response rating [4, 15]: 2
- Soybean plant response rating [4, 16]: 2
- Soybean plant response rating [4, 17]: 5
- Redroot pigweed plant response rating [5, 12]: 8
- Redroot pigweed plant response rating [5, 13]: 10
- Plant response rating, Redroot pigweed [5, 14]: 10
- Redroot pigweed plant response rating [5, 15]: 3
- Redroot pigweed plant response rating [5, 16]: 10
- Plant response rating (0 to 10; 0 is no effect, 10 is complete control), Redroot pigweed ([5]; Rate 250 g/ha, Postemergence): 9
- Redroot pigweed plant response rating [5, 17]: 9
- Plant response rating, Barley (winter) [6, 18]: 40
- Plant response rating, Barley (winter) [6, 19]: 50
- Plant response rating, Barley (winter) [6, 20]: 70
- Plant response rating, Wheat (winter) [7, 18]: 20
- Plant response rating, Wheat (winter) [7, 19]: 20
- Plant response rating, Wheat (winter) [7, 20]: 50
- Plant response rating, Wild oat [8, 18]: 30
- Plant response rating, Wild oat [8, 19]: 40
- Plant response rating, Wild oat [8, 20]: 30
- Morningglory plant response rating [9, 12]: 0
- Morningglory plant response rating [9, 13]: 6
- Plant response rating, Morningglory [9, 14]: 6
- Morningglory plant response rating [9, 15]: 5
- Morningglory plant response rating [9, 16]: 1
- Plant response rating (0 to 10; 0 is no effect, 10 is complete control), Morningglory ([9]; Rate 250 g/ha, Postemergence): 9
- Morningglory plant response rating [9, 17]: 9
- Plant response rating, Wheat (winter) ([10]; Rate 31 g/ha, 0 no effect, 100 complete control): 0
- Plant response rating, Wheat (winter) ([10]; Rate 62 g/ha): 10
- Plant response rating, Wheat (winter) ([10]; Rate 125 g/ha, 0 is no effect, 100 is complete control): 0
- Plant response rating, Green foxtail [11, 18]: 60
- Plant response rating, Green foxtail [11, 19]: 100
- Plant response rating, Green foxtail [11, 20]: 100

Structure (SMILES): CC(C)N(C(=O)n1oc(=O)n(Cc2ccccn2)c1=O)c1ccc(F)cc1 [Compound 267]
- Cocklebur plant response rating [1, 12]: 0
- Cocklebur plant response rating [1, 13]: 0
- Plant response rating, Cocklebur [1, 14]: 0
- Cocklebur plant response rating [1, 15]: 0
- Cocklebur plant response rating [1, 21]: 0
- Cocklebur plant response rating [1, 16]: 0
- Plant response rating, Cocklebur [1, 22]: 1
- Cocklebur plant response rating [1, 17]: 3
- Blackgrass plant response rating (0 to 100 scale) ([2]; Rate 250 g/ha): 50
- Plant response rating, Blackgrass [2, 23]: 60
- I. Ryegrass plant response rating (0 to 100 scale) ([3]; Rate 250 g/ha): 50
- Plant response rating, I. Ryegrass [3, 23]: 50
- Soybean plant response rating [4, 12]: 0
- Soybean plant response rating [4, 13]: 0
- Plant response rating, Soybean [4, 14]: 0
- Soybean plant response rating [4, 21]: 2
- Soybean plant response rating [4, 16]: 0
- Plant response rating, Soybean [4, 22]: 3
- Soybean plant response rating [4, 17]: 6
- Redroot pigweed plant response rating [5, 12]: 0
- Redroot pigweed plant response rating [5, 13]: 6
- Plant response rating, Redroot pigweed [5, 14]: 7
- Redroot pigweed plant response rating [5, 21]: 0
- Redroot pigweed plant response rating [5, 16]: 3
- Plant response rating, Redroot pigweed [5, 22]: 0
- Redroot pigweed plant response rating [5, 17]: 6
- Barley (winter) plant response rating (0 to 100 scale) ([6]; Rate 250 g/ha): 30
- Plant response rating, Barley (winter) [6, 23]: 70
- Wheat (winter) plant response rating (0 to 100 scale) ([7]; Rate 250 g/ha): 55
- Plant response rating, Wheat (winter) [7, 23]: 70
- Wild oat plant response rating (0 to 100 scale) ([8]; Rate 250 g/ha): 55
- Plant response rating, Wild oat [8, 23]: 70
- Morningglory plant response rating [9, 12]: 0
- Morningglory plant response rating [9, 13]: 0
- Plant response rating, Morningglory [9, 14]: 0
- Morningglory plant response rating [9, 21]: 1
- Morningglory plant response rating [9, 16]: 0
- Plant response rating, Morningglory [9, 22]: 3
- Morningglory plant response rating [9, 17]: 8
- Wheat (winter) plant response rating ([10]; Rate 250 g/ha, 0 to 100 scale where 0 is no effect and 100 is complete control): 70
- Plant response rating, Wheat (winter) ([10]; Rate 500 g/ha, 0 is no effect, 100 is complete control): 70
- Green foxtail plant response rating (0 to 100 scale) ([11]; Rate 250 g/ha): 100
- Plant response rating, Green foxtail [11, 23]: 100
